From ChEMBL document CHEMBL1201862, “PubChem BioAssay data set” (2004)
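The compound was tested at five concentrations on cells cultured in 96-well plates, with a 48-hour exposure period. GI50 is the concentration that inhibits growth by half.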 Activity calls are given as the source filed them. Cut-off read from the data, not from the text of the source: active = GI50 up to about 1.1 µM and inactive = higher.

Key:
Assay in all cases: inhibition of tumour cell growth, NCI panel, 48 h
OVCAR-5 = test system: OVCAR-5
NCI/ADR-RES = test system: NCI/ADR-RES
SF-539 = test system: SF-539
UACC-257 = test system: UACC-257
786-0 = test system: 786-0
SNB-75 = test system: SNB-75
U-251 = test system: U-251
UACC-62 = test system: UACC-62
OVCAR-4 = test system: OVCAR-4
A498 = test system: A498
NCI-H460 = test system: NCI-H460
HCT-15 = test system: HCT-15
OVCAR-3 = test system: OVCAR-3
IGROV-1 = test system: IGROV-1
TK-10 = test system: TK-10
HCT-116 = test system: HCT-116
RPMI-8226 = test system: RPMI-8226
OVCAR-8 = test system: OVCAR-8
T47D = test system: T47D
SR = test system: SR
SK-MEL-2 = test system: SK-MEL-2
COLO 205 = test system: COLO 205
MDA-N = test system: MDA-N
BT-549 = test system: BT-549
CCRF-CEM = test system: CCRF-CEM
SK-OV-3 = test system: SK-OV-3
CAKI-1 = test system: CAKI-1
DU-145 = test system: DU-145
NCI-H522 = test system: NCI-H522
M14 = test system: M14
SNB-19 = test system: SNB-19
EKVX = test system: EKVX
MDA-MB-231 = test system: MDA-MB-231
HCC 2998 = test system: HCC 2998
MCF7 = test system: MCF7
NCI-H23 = test system: NCI-H23
KM12 = test system: KM12
SF-295 = test system: SF-295
A549 = test system: A549
UO-31 = test system: UO-31
K562 = test system: K562
LOX IMVI = test system: LOX IMVI
SW-620 = test system: SW-620
SK-MEL-28 = test system: SK-MEL-28
Malme-3M = test system: Malme-3M
MOLT-4 = test system: MOLT-4
HL-60 = test system: HL-60
SF-268 = test system: SF-268
SN12C = test system: SN12C
Hs-578T = test system: Hs-578T
MDA-MB-435 = test system: MDA-MB-435
ACHN = test system: ACHN
HT-29 = test system: HT-29
PC-3 = test system: PC-3
HOP-92 = test system: HOP-92
RXF 393 = test system: RXF 393
HOP-62 = test system: HOP-62
SK-MEL-5 = test system: SK-MEL-5

Structure (SMILES): COC(=O)CCCC(=O)NC1=C(NCc2ccccc2)C(=O)c2ccccc2C1=O
- GI50 (OVCAR-5): > 100 µM (inactive)
- GI50 (NCI/ADR-RES): 27.3 µM (inactive)
- GI50 (SF-539): 36.4 µM (inactive)
- GI50 (UACC-257): 29.7 µM (inactive)
- GI50 (786-0): 63.8 µM (inactive)
- GI50 (SNB-75): > 100 µM (inactive)
- GI50 (U-251): > 100 µM (inactive)
- GI50 (UACC-62): 29.2 µM (inactive)
- GI50 (OVCAR-4): 47.9 µM (inactive)
- GI50 (A498): > 100 µM (inactive)
- GI50 (NCI-H460): 52 µM (inactive)
- GI50 (HCT-15): 52.4 µM
- GI50 (OVCAR-3): 23 µM (inactive)
- GI50 (IGROV-1): 44.2 µM (inactive)
- GI50 (TK-10): > 100 µM (inactive)
- GI50 (HCT-116): 32.1 µM (inactive)
- GI50 (RPMI-8226): 49.5 µM (inactive)
- GI50 (OVCAR-8): 68.4 µM (inactive)
- GI50 (T47D): 59.3 µM (inactive)
- GI50 (SR): 46.5 µM (inactive)
- GI50 (SK-MEL-2): 87.5 µM (inactive)
- GI50 (COLO 205): 23.8 µM (inactive)
- GI50 (MDA-N): 41.4 µM (inactive)
- GI50 (BT-549): 28.6 µM (inactive)
- GI50 (CCRF-CEM): 36.3 µM (inactive)
- GI50 (SK-OV-3): 45.5 µM (inactive)
- GI50 (CAKI-1): > 100 µM (inactive)
- GI50 (DU-145): > 100 µM (inactive)
- GI50 (NCI-H522): 70.5 µM (inactive)
- GI50 (M14): 29.6 µM (inactive)
- GI50 (SNB-19): > 100 µM (inactive)
- GI50 (EKVX): 51.4 µM (inactive)
- GI50 (MDA-MB-231): 50.1 µM (inactive)
- GI50 (HCC 2998): > 100 µM (inactive)
- GI50 (MCF7): 30.3 µM (inactive)
- GI50 (NCI-H23): 53.2 µM (inactive)
- GI50 (KM12): 53.7 µM (inactive)
- GI50 (SF-295): > 10 µM (inactive)
- GI50 (A549): 56.5 µM (inactive)
- GI50 (UO-31): > 100 µM (inactive)
- GI50 (K562): 45.6 µM (inactive)
- GI50 (LOX IMVI): 46.2 µM (inactive)
- GI50 (SW-620): 60.8 µM (inactive)
- GI50 (SK-MEL-28): > 100 µM (inactive)
- GI50 (Malme-3M): 15.5 µM (inactive)
- GI50 (MOLT-4): 34 µM (inactive)
- GI50 (HL-60): 29 µM (inactive)
- GI50 (SF-268): > 100 µM (inactive)
- GI50 (SN12C): 52.5 µM (inactive)
- GI50 (Hs-578T): > 100 µM (inactive)
- GI50 (MDA-MB-435): 42.4 µM (inactive)
- GI50 (ACHN): 73.8 µM (inactive)

Structure (SMILES): CC(=O)OCC1OC(N2C(=S)N[C@H]([C@@H](O)[C@H](O)[C@H](O)CO)[C@H]2O)C(OC(C)=O)C(OC(C)=O)C1OC(C)=O (stereo partly drawn)
- GI50 (HT-29): > 100 µM (inactive)
- GI50 (OVCAR-5): > 100 µM (inactive)
- GI50 (NCI/ADR-RES): > 100 µM (inactive)
- GI50 (SF-539): > 100 µM (inactive)
- GI50 (UACC-257): > 100 µM (inactive)
- GI50 (786-0): > 100 µM (inactive)
- GI50 (U-251): > 100 µM (inactive)
- GI50 (UACC-62): > 100 µM (inactive)
- GI50 (OVCAR-4): > 100 µM (inactive)
- GI50 (NCI-H460): > 100 µM (inactive)
- GI50 (HCT-15): > 100 µM
- GI50 (PC-3): > 100 µM (inactive)
- GI50 (OVCAR-3): > 100 µM (inactive)
- GI50 (IGROV-1): > 100 µM (inactive)
- GI50 (HCT-116): > 100 µM (inactive)
- GI50 (RPMI-8226): > 100 µM (inactive)
- GI50 (OVCAR-8): > 100 µM (inactive)
- GI50 (SR): > 100 µM (inactive)
- GI50 (SK-MEL-2): > 100 µM (inactive)
- GI50 (COLO 205): > 100 µM (inactive)
- GI50 (MDA-N): > 100 µM (inactive)
- GI50 (BT-549): > 100 µM (inactive)
- GI50 (CCRF-CEM): > 100 µM (inactive)
- GI50 (SK-OV-3): > 100 µM (inactive)
- GI50 (CAKI-1): > 100 µM (inactive)
- GI50 (HOP-92): > 100 µM (inactive)
- GI50 (DU-145): > 100 µM (inactive)
- GI50 (NCI-H522): > 100 µM (inactive)
- GI50 (M14): > 100 µM (inactive)
- GI50 (RXF 393): > 100 µM (inactive)
- GI50 (SNB-19): > 100 µM (inactive)
- GI50 (EKVX): > 100 µM (inactive)
- GI50 (MDA-MB-231): > 100 µM (inactive)
- GI50 (HCC 2998): > 100 µM (inactive)
- GI50 (MCF7): > 100 µM (inactive)
- GI50 (NCI-H23): > 100 µM (inactive)
- GI50 (KM12): > 100 µM (inactive)
- GI50 (SF-295): > 100 µM (inactive)
- GI50 (A549): > 100 µM (inactive)
- GI50 (UO-31): > 100 µM (inactive)
- GI50 (HOP-62): > 100 µM (inactive)
- GI50 (K562): > 100 µM (inactive)
- GI50 (SK-MEL-5): > 100 µM (inactive)
- GI50 (SW-620): > 100 µM (inactive)
- GI50 (SK-MEL-28): > 100 µM (inactive)
- GI50 (MOLT-4): > 100 µM (inactive)
- GI50 (SF-268): > 100 µM (inactive)
- GI50 (SN12C): > 100 µM (inactive)
- GI50 (Hs-578T): > 100 µM (inactive)
- GI50 (MDA-MB-435): > 100 µM (inactive)
- GI50 (ACHN): > 100 µM (inactive)
